Experiments:
[1] = system: 5-hydroxytryptamine induced bronchoconstriction; experiment: inhibition of 5-hydroxytryptamine induced bronchoconstriction in the anaesthetised, artificially respired guinea-pig (Konzett-Rossler preparation); format: in vivo; conditions: Cavia porcellus, iv, vs 5-hydroxytryptamine, read-out: Konzett-Rossler Test Ed50
Excerpt: (a) The Compounds were examined for their ability to inhibit 5-hydroxytryptamine induced bronchoconstriction in the anaesthetised, artificially respired guinea-pig (Konzett-Rossler preparation).

[2] = system: indomethacin induced gastric ulceration; experiment: inhibition of indomethacin induced gastric ulceration in the rat; format: in vivo
Excerpt: The compounds were examined for their ability to inhibit indomethacin induced gastric ulceration in the rat and the activities are shown in Table 2.

[3] = system: broncho-constriction induced by an histamine aerosol; experiment: protection of conscious guinea-pigs against broncho-constriction induced by an histamine aerosol (Herxheimer test); format: in vivo, guinea-pig
Protocol: (b) The Compounds were also examined for their ability to protect conscious guinea-pigs against broncho-constriction induced by an histamine aerosol (Herxheimer test). The Compounds were administered by aerosol.
The aerosol was produced in the following manner.
Water soluble Compounds were dissolved in normal saline at a concentration of […]. Water insoluble Compounds were dissolved in ethanol at a concentration of 10 μg/ml. These solutions were then diluted to the test concentrations with normal saline.

Row | Structure (SMILES) | ED50 [1] [µg/kg] | % Inhibition of Damage ([2]; 100 mg/kg p.o.) [%] | % Increase in pre-convulsive coughing time at a dose of 10 μg/ml ([3]; after 2 mins.) [%] | also measured
1 | CCCCCCC(C)(O)CCN1C(=O)N(C)C(=O)C1CCCCCCCC(C)=O (stereo not shown) [Compound 1, 1-(3'-hydroxy-3'-methyl-n-nonyl)-3-methyl-5-(8"-oxo-n-nonyl) hydantoin] | 1.4 | 100 |  | % Inhibition of Damage ([2]; 25 mg/kg p.o.): 64%; % Inhibition of Damage ([2]; 50 mg/kg p.o.): 74%
2 | CCCCCCC(C)(O)CCN1C(=S)N(C)C(=O)C1CCCCCCCC(C)=O (stereo not shown) [Compound 2, 1-(3'-hydroxy-3'-methyl-n-nonyl)-3-methyl-5-(8"-oxo-n-nonyl)-2-thiohydantoin] |  | 100 |  | 
3 | CCCCCCC(C)(O)CCN1CN(C)C(=O)C1CCCCCCCC(C)=O (stereo not shown) [Compound 3, 1-(3'-hydroxy-3'-methyl-n-nonyl)-3-methyl-5-(8"-oxo-n-nonyl)-4-imidazolidone] |  | 65 |  | 
4 | CCCCCCC(C)(O)CCN1C(=O)N(C)C(=O)C1CC#CCCCCC(C)=O (stereo not shown) [Compound 6, 1-(3'-hydroxy-3'-methyl-n-nonyl)-3-methyl-5-(8"-oxo-non-2-ynyl) hydantoin] |  |  | 29 | % Increase in pre-convulsive coughing time at a dose of 10 μg/ml ([3]; after 5 mins.): 15%
5 | CCCCCCC(C)(O)CCN1C(=O)NC(=O)C1CCCCCCCC(C)=O (stereo not shown) [Compound 8, 1-(3'-hydroxy-3'-methyl-n-nonyl)-5-(8"-oxo-n-nonyl) hydantoin] |  |  | 81 | 
6 | CCCCCCC(C)(O)CCN1C(=O)N(C)C(=O)C1CCCCCCC(C)=O (stereo not shown) [Compound 9, 1-(3'-hydroxy-3'-methyl-n-nonyl)-3-methyl-5-(7"-oxo-n-octyl) hydantoin] | 67.5 |  |  | 
7 | CC(=O)CCCCCCCC1C(=O)N(C)C(=O)N1CCC(C)(O)C1CCCCC1 (stereo not shown) [Compound 11, 1-(3'-hydroxy-3'-cyclohexyl-n-butyl)-3-methyl-5-(8"-oxo-n-nonyl) hydantoin] | 1 |  | 140 | % Increase in pre-convulsive coughing time at a dose of 10 μg/ml ([3]; after 5 mins.): 23%
